In patent publication US20050158271A1, “Pharmaceutical applications of hydrotropic polymer micelles” (priority 2000, published 2005):
Values after ≈ are worked out from the molar mass of the structure shown.

Assays:
[1] = tested on: SKOV-3; test: Antitumor cytotoxicity (ED50), SKOV-3; type: cell-based; details: SKOV-3 tumor cell line
Protocol: (§1) The antitumor cytotoxicities, as measured by ED50, of polymeric micelles on various cell lines were measured as shown in Table 7. […] Free paclitaxel and doxorubicin in ethanol were used as positive controls. The ED50 values of hydrotropic micelles are much lower than PLA-PEG and PPA-PEG micelles.

[2] = tested on: MDA231; test: Antitumor cytotoxicity (ED50), MDA231; type: cell-based; details: MDA231 tumor cell line
Protocol: as §1

[3] = 50:50 mixture of Cremophore EL and dehydrated ethanol, diluted in isotonic saline; cited from earlier work
[4] = Aqueous solubility of paclitaxel (intrinsic, clinical vehicle, hydrotropic agents)
Excerpt: The molecular structures of these hydrotropic agents are shown below.

[5] = tested on: MCF-7; test: Antitumor cytotoxicity (ED50), MCF-7; type: cell-based; details: MCF-7 tumor cell line
Protocol: as §1

[6] = tested on: HT-29; test: Antitumor cytotoxicity (ED50), HT-29; type: cell-based; details: HT-29 tumor cell line
Protocol: as §1

SMILES	ED50 SKOV-3 [1]	ED50 MDA231 [2]	paclitaxel solubility in formulation [3]	increase in aqueous solubility over the intrinsic solubility [4]	ED50 MCF-7 [5]	ED50 HT-29 [6]	hydrotropic property for paclitaxel (ability to increase aqueous paclitaxel solubility) ([4]; hydrotrope screening, in words)
CC(=O)O[C@H]1C(=O)[C@@]2(C)[C@H]([C@H](OC(=O)c3ccccc3)[C@]3(O)C[C@H](OC(=O)[C@H](O)[C@@H](NC(=O)c4ccccc4)c4ccccc4)C(C)=C1C3(C)C)[C@]1(OC(C)=O)CO[C@@H]1C[C@@H]2O [Paclitaxel, paclitaxel]	0.006 µg/mL (≈ 0.00703 µM)	0.033 µg/mL (≈ 0.0386 µM)	≤ 1200 µg/mL	5˜6 orders of magnitude	0.043 µg/mL (≈ 0.0504 µM)	0.003 µg/mL (≈ 0.00351 µM)	
COc1cccc2c1C(=O)c1c(O)c3c(c(O)c1C2=O)C[C@@](O)(C(=O)CO)C[C@@H]3O[C@H]1C[C@H](N)[C@H](O)[C@H](C)O1 [Doxorubicin]	0.611 µg/mL (≈ 1.12 µM)	0.050 µg/mL (≈ 0.092 µM)			0.773 µg/mL (≈ 1.42 µM)	0.044 µg/mL (≈ 0.081 µM)	
O=C([O-])c1ccccc1O.[Na+] [sodium salicylate, Sodium salicylate]							excellent hydrotropes for paclitaxel
